One assay relates to Sprague-Dawley rats. Description: Glucose tolerance test in normal rats. It counts as in vivo, rat. The settings on record: 10 mg/kg. As for the experimental part:
Twenty-six (26) Sprague-Dawley rats were divided into four groups: the placebo group (7 rats, to be administered with 10% Tween 20), the positive control group (7 rats, to be administered with glibenclamide), the 250 mg/kg HC group (6 rats, to be administered with 250 mg/kg ethanol extract of leaves and pseudostems of Hedychium coronarium Koening ), and the 750 mg/kg HC group (6 rats, to be administered with 750 mg/kg ethanol extract of the leaves and pseudostems of Hedychium coronarium Koening ). The rats were fasted for 7 hours and then administered with 250 mg/kg ethanol extract of leaves and pseudostems of Hedychium coronarium Koening (the 250 mg/kg HC group), 750 mg/kg ethanol extract of leaves and pseudostems of Hedychium coronarium Koening (the 750 mg/kg HC group), 10 mg/kg glibenclamide (the positive control group), or 10% Tween 20 (the placebo/control group). After 30 minutes, each rat was administered with glucose at a total amount of 5 g/kg, orally (2.5 g/kg) and subcutaneously (2.5 g/kg). Blood was drawn from each rat at the intervals of 0, 30, 60, 90 and 120 minutes for the measurement of glucose (mg/DL). […]
The test rats and procedure were as those in Example 1. However, in this example, 24 Sprague-Dawley rats were divided into four groups: the placebo group (6 rats, to be administered with water), the positive control group (6 rats, to be administered with 10 mg/kg glibenclamide), the 0.4 g/kg HC group (6 rats, to be administered with 0.4 g/kg water-ethanol extract of leaves and pseudostems of Hedychium coronarium Koening ), and the 0.8 g/kg HC group (6 rats, to be administered with 0.8 g/kg water-ethanol extract of leaves and pseudostems of Hedychium coronarium Koening ). After 30 minutes, each rat was administered with glucose at a total amount of 5 g/kg, orally (2.5 g/kg) and subcutaneously (2.5 g/kg). Blood was drawn from each animal at 30-minute intervals for the measurement of glucose (mg/DL). […]

For assay [1], the system named is Sprague-Dawley rats with type I diabetes. The assay can be described thus: Insulin resistance test in rats with type I diabetes. It counts as in vivo, rat. Conditions: 0.3 U/kg insulin subcutaneous. On the procedure: Eighteen (18) Sprague-Dawley rats with type I diabetes were divided into three groups: the control group (6 rats, to be administered with 10% Tween 20), the insulin group (6 rats, to be subcutaneously administered with 0.3 U/kg insulin) and the insulin plus HC group (6 rats, to be subcutaneously administered with 0.3 U/kg insulin and orally administered with 1.0 g/kg of ethanol extract of leaves and pseudostems of Hedychium coronarium Koening ). The rats were fasted for 4 hours and then administered with 10% Tween 20 (the control group), 0.3 U/kg insulin (the insulin group) or 0.3 U/kg insulin plus 1.0 g/Kg of ethanol extract of leaves and pseudostems of Hedychium coronarium Koening (the insulin plus HC group). After administration of 2.5 g/kg glucose, blood was drawn from each animal at 30-minute intervals for the measurement of glucose (mg/DL).

Marks after values point to notes of the source that are not given here.

As to `COc1ccc(Cl)cc1C(=O)NCCc1ccc(S(=O)(=O)NC(=O)NC2CCCCC2)cc1` [Glibenclamide, glibenclamide], the “Concentration of blood glucose” value in the assay on Sprague-Dawley rats (Example 1, 0 min) is 99 ± 2.7 mg/dL; in the assay with Sprague-Dawley rats (Example 1, 30 min), 150.7 +/− 15.2** mg/DL; in the assay on Sprague-Dawley rats (Example 1, 60 min) it was 121.4 +/− 10.2** mg/DL; in the assay on Sprague-Dawley rats (Example 1, 90 min), 101.6 +/− 6.7** mg/DL; with Sprague-Dawley rats (Example 1, 120 min), 83.4 +/− 2.5*** mg/DL; in the assay with Sprague-Dawley rats (Example 9, 0 min) it was 94.3 ± 3.8 mg/dL. Further, the “Concentration of blood glucose” value in the assay on Sprague-Dawley rats (Example 9, 30 min) is 173.8 +/− 14.5*** mg/DL; in the assay on Sprague-Dawley rats (Example 9, 60 min) it was 101.8 +/− 8.4*** mg/DL; in the assay with Sprague-Dawley rats (Example 9, 90 min), 82.7 +/− 8.1*** mg/DL; in the assay on Sprague-Dawley rats (Example 9, 120 min), 68.8 +/− 5.9*** mg/DL.
With “Insulin: insulin, subcutaneously administered at 0.3 U/kg”, the “Concentration of blood glucose” value was 522.5 ± 27.1 mg/dL in assay [1] (0 min), 695.8 +/− 18.7** mg/DL in assay [1] (30 min), 593.3 +/− 16.2* mg/DL in assay [1] (60 min) and 486.2 +/− 9.6* mg/DL in assay [1] (90 min).

The values are drawn from patent publication US9023407B2, “Plant extract for treating diabetes and process for making same” (Development Center for Biotechnology, priority 2012, dated 2015).
